Measured values: patent US10265294B2, “Compositions and methods for treating epithelial cancer” (YALE UNIVERSITY, priority 2016, dated 2019)

What was measured:
[1] = tested on: i.p. tumors of mCherry+OCSC1-F2 ovarian cancer cells; assay: Recurrent disease xenograft, maintenance treatment after Paclitaxel; format: in vivo
Description: The Yale University Institutional Animal Care and Use Committee approved all in vivo studies described. Intra-peritoneal tumors were established in athymic nude mice using 4×10^6 mCherry+OCSC1-F2 ovarian cancer cells (Craveiro, et al., 2013, Cancer Med. 2:751-762). Injection of cancer cells is designated as day 0 and treatment commenced between day 3-5. Establishment of i.p. tumors was confirmed by live imaging (In-Vivo FX PRO, Bruker Corp., Billerica, Mass.) prior to treatment. TRX-E-002-1 was prepared in 20% Captisol or Dexsolve and administered daily at 50 mg/kg or 100 mg/kg. Paclitaxel was given at 12 mg/kg q3d and Cisplatin at 5 mg/kg weekly. All treatments were given i.p. Tumor growth was monitored q3d by live imaging and response to treatment was assessed using ROI area.
Although the standard of care for ovarian cancer patients (platinum plus taxane) is effective initially, most patients develop recurrent disease. Recurrence is the major cause of mortality in ovarian cancer patients, and thus approaches that can prevent recurrence are critical to improve patient survival. As described elsewhere herein, a unique advantage of the xenograft model is the recapitulation of recurrent disease that is typically observed in patients with ovarian cancer. […] Upon recurrence, tumors acquire resistance and become unresponsive to a second-round of Paclitaxel regimen, as observed in ovarian cancer patients. Thus, the model allows one to assess the value of novel compounds in preventing recurrence when given as maintenance treatment.
Thus mice were given Paclitaxel as initial treatment. […] After the 4th dose of Paclitaxel mice were re-randomized into the different maintenance groups. Here the maintenance protocol consisted of continued treatment with Paclitaxel, or maintenance with TRX-E-002-1 (100 mg/kg), or maintenance with Vehicle control.

[2] = tested on: OCSC1 (chemoresistant CD44+/MyD88+ ovarian cancer stem cell clone); assay: Real-time measurement of cell number/cell death and IC50, OCSC1 clone; format: cell-based; conditions: Homo sapiens; screen of 40 SBP analogs, OCSC1 clone (FIG. 1A)
Experimental: CD44+/MyD88+ ovarian cancer stem cell clones (OCSC1 and OCSC2) and CD44−/MyD88− ovarian cancer cells (OCC1 and OCC2) were isolated from either tumor tissue or ascites obtained from patients diagnosed with stage III/IV serous ovarian cancer and propagated (Alvero, et al., 2009, Cell Cycle 8:158-166; Chefetz, et al., 2013, Cell Cycle 12:511-521). The epithelial nature of the isolated cells was determined by immunostaining for Ck18. Purity of the cultures based on CD44 expression by flow cytometry and chemoresistance were routinely tested. […]
(§1) Effect of each compound on cell morphology, growth, and viability was assessed using a kinetic live cell imaging system (Incucyte, Essen Bioscience). Proliferation was calculated as previously described (Alvero, et al., 2011, Mol. Cancer Ther. 10:1385-1393) using metrics from either confluence or fluorescent count from nuclear-restricted RFP or GFP. Cell death was quantified; similarly CELLTOX® Green Cytotoxicity Assay (Promega, Madison, Wis.). IC50 was calculated as described using GraphPad Prism (GraphPad Software Inc., LaJolla, Calif.).
(§2) A panel of four different SBP subfamilies with cytotoxic activity against chemoresistant ovarian cancer stem cells were tested for efficacy in inducing ovarian cancer stem cell death. […] The efficacy of each analog was determined based on its IC50.

[3] = tested on: OCSC2 (chemoresistant CD44+/MyD88+ ovarian cancer stem cell clone); assay: Real-time measurement of cell number/cell death and IC50, OCSC2 clone; format: cell-based, human
Experimental: (§3) CD44+/MyD88+ ovarian cancer stem cell clones (OCSC1 and OCSC2) and CD44−/MyD88− ovarian cancer cells (OCC1 and OCC2) were isolated from either tumor tissue or ascites obtained from patients diagnosed with stage III/IV serous ovarian cancer and propagated (Alvero, et al., 2009, Cell Cycle 8:158-166; Chefetz, et al., 2013, Cell Cycle 12:511-521). The epithelial nature of the isolated cells was determined by immunostaining for Ck18. Purity of the cultures based on CD44 expression by flow cytometry and chemoresistance were routinely tested. Stable expression of nuclear-restricted red fluorescent (in OCSCs) or green fluorescent proteins (in OCCs) was performed by transduction using NUCLIGHT® Red or Green Lentivirus Reagent (Essen Bioscience, Ann Arbor, Mich.). Spheroids were formed from OCSCs by culturing in ultra-low attachment multi-well plates (Corning, Inc., Corning, N.Y.).
as §1, §2
TRX-E-002 exists as a racemic mixture comprised of two enantiomers, enantiomer A (TRX-E-002-1) and enantiomer B (TRX-E-002-2). Thus, the enantiomers were separated and assessed separately. […]

[4] = tested on: OCSCs (CD44+/MyD88+ ovarian cancer stem cells); assay: OCSC growth, morphology, RFP+ cell count and Celltox cell death (kinetic live cell imaging); format: cell-based, human
Experimental: as §3, §1
In vitro, conventional chemotherapeutic drugs had negligible effect on OCSC growth even in the μM range (FIG. 1B).
TRX-E-002 exists as a racemic mixture comprised of two enantiomers, enantiomer A (TRX-E-002-1) and enantiomer B (TRX-E-002-2). Thus, the enantiomers were separated and assessed separately. To distinguish between an analog's cytostatic or cytotoxic activity, OCSC clones that are stably transfected with nuclear-restricted RFP were used, which allows an accurate quantification of the number of cells and can be multiplexed with CELLTOX® assay to concomitantly measure the number of dead cells.

ERK = assay: Phosphokinase array / Western blot for phosphorylated ERK in OCSCs; format: cell-based, human; conditions: U0126 10 μM, 2 hours; comparable to levels induced by TRX-E-002-1
Experimental: SDS-PAGE and Western blots were performed using 20 μg of total protein lysate as described in Kamsteeg, et al., 2003, Oncogene 22:2611-2620. Antibodies used were: mouse anti-phospho ERK (Santa Cruz Biotechnology, Inc., Dallas, Tex.); rabbit anti-phospho c-Jun, rabbit anti c-Jun, rabbit anti-ERK, rabbit anti-cleaved caspase 3 all from Cell Signaling Technology, Danvers, Mass.; and mouse anti-GAPDH (Sigma-Aldrich).
In order to elucidate the early pathways responsible for the sustained cytotoxic effect observed with TRX-E-002-1, a phosphokinase array was performed. The phosphokinase array detected relative phosphorylation levels of 43 different kinases involved in major signal transduction pathways.
The western blot results also validated the decrease in p-ERK in cells treated with TRX-E-002-1. […] The effect on the phosphorylation status of the kinases (upregulation of p-cJun and downregulation of p-ERK) was observed as early as 2 h post-treatment and maintained up to 24 h (FIG. 4A). The phosphorylation levels of c-Jun and ERK correlate with the differential ability of the two doses of TRX-E-002-1 to induce a sustained cytotoxic effect. […] This correlates with the ability of this dose of TRX-E-002-1 to maintain the upregulation of p-cJun and downregulation of p-ERK even when the compound is removed (FIG. 4B). […]

OCSCs = assay: Cell death of OCSCs with JNK or ERK pathway inhibitor; format: cell-based, human; conditions: U0126 10 μM, 24 hour time-point
Experimental: as §1
Jun N-terminal kinase (JNK) is a stress-activated protein kinase and the main kinase that phosphorylates c-Jun. To determine whether the JNK/Jun pathway is involved in TRX-E-002-1-induced cell death, the JNK inhibitor SP600125 (1,9-Pyrazoloanthrone; a reversible ATP competitive inhibitor selective for JNK 1, 2, and 3) was used. Cells were treated with TRX-E-002-1 in the presence or absence of SP600125.
To determine the importance of downregulating the levels of p-ERK, cells were treated with U0126 (1,4-diamino-2,3-dicyano-1,4-bis(2-aminophenylthio)butadiene) to recapitulate the effect of TRX-E-002-1 on the ERK pathway.

[5] = tested on: co-culture of RFP-labeled OCSC2 and GFP-labeled OCC2; assay: In vitro co-culture model 50% RFP-OCSC2 / 50% GFP-OCC2; format: cell-based; conditions: co-culture 50/50; TRX-E-002-1 0.12 μM, Cisplatin 20 μM
Experimental: as §3, §1
Without wishing to be limited by any theory, response to chemotherapy may be modified by cross-talk among different cancer cell types within the tumor. Thus, to mimic the heterogeneity of ovarian tumors an in vitro co-culture model consisting of RFP-labeled chemoresistant OCSC2 and GFP-labeled chemosensitive OCC2 was used. The co-cultures, which are comprised of 50% RFP-OCSC2 and 50% GFP-OCC2 at time of treatment, were exposed to TRX-E-002-1, cisplatin, or the combination of both. Since GFP-OCC2 has faster doubling time than RFP-OCSC2, it overtook the control co-cultures by the end of the experiment and thus the control co-cultures are mainly comprised of GFP-OCC2 by the 24 h time-point (FIG. 2B).

[6] = tested on: chemoresistant ovarian cancer stem cells; assay: OCSC growth and morphology with TRX-E-002-1, AICAR or the combination; format: cell-based, human
Experimental: The effect of each compound on cell growth was assessed using a kinetic live cell imagine system (Incucyte, Essen Bioscience). Proliferation was determined based on either confluence or fluorescent count from nuclear-restricted RFP or GFP. The IC50 values were calculated using GraphPad Prism (GraphPad Software Inc., LaJolla, Calif.). […]

CC(=O)O[C@H]1C(=O)[C@@]2(C)[C@H]([C@H](OC(=O)c3ccccc3)[C@]3(O)C[C@H](OC(=O)[C@H](O)[C@@H](NC(=O)c4ccccc4)c4ccccc4)C(C)=C1C3(C)C)[C@]1(OC(C)=O)CO[C@@H]1C[C@@H]2O [Paclitaxel, reference compound]
tumor progression during initial treatment ([1]; Paclitaxel 4 doses at 12 mg/kg i.p.): significant delay in tumor progression | tumor progression during maintenance treatment ([1]; after 4th dose of Paclitaxel, TRX-E-002-1 100 mg/kg daily i.p. or continued Paclitaxel): tumor progression was observed | gross examination of residual disease ([1]; maintenance groups): visible carcinomatosis and extensive metastasis | tumor weights at end point compared to control ([1]; maintenance groups): not

COc1cc(C2COc3c(ccc(O)c3C)C2c2ccc(O)cc2)cc(OC)c1O (racemic) [TRX-E-002, 3-(4-hydroxy-3,5-dimethoxyphenyl)-4-(4-hydroxyphenyl)-8-methylchroman-7-ol]
IC50 [2]: < 0.245 µM | IC50 ([3]; Homo sapiens, screen of 40 SBP analogs, OCSC2 clone (FIG. 1A)): < 0.245 µM | apoptotic cells by microscopic evaluation of the cultures ([4]; 24 hours, compared with Cisplatin or Paclitaxel treated cultures): higher percentage of apoptotic cells | effect on OCSC growth ([4]; chemotherapeutic drugs even in the μM range, TRX-E-002 at low concentrations): persistent growth inhibitory effect

COc1cc(C2COc3c(ccc(O)c3C)C2c2ccc(O)cc2)cc(OC)c1O (single isomer, unassigned) [TRX-E-002-2]
IC50 ([3]; OCSC2, 24 hours (FIG. 1G)): 10 µM | number of nuclear RFP+ cells ([4]; RFP OCSC clones, TRX-E-002-1 beginning at the 0.245 μM dose, TRX-E-002-2 except for the very high dose of 10 μM): mostly ineffective

N#CC(=C(N)Sc1ccccc1N)C(C#N)=C(N)Sc1ccccc1N [U0126, 1,4-diamino-2,3-dicyano-1,4-bis(2-aminophenylthio)butadiene, reference compound]
levels of p-ERK (ERK): downregulated | effect on cell death relative to TRX-E-002-1 (OCSCs): not comparable

N.N.[Cl][Pt][Cl] [Cisplatin, reference compound]
number of GFP+ cells (GFP-OCC2) [5]: decrease | number of mCherry+ cells (RFP-OCSC2) [5]: no effect

NC(=O)c1ncn([C@@H]2O[C@H](CO)[C@@H](O)[C@H]2O)c1N [AICAR, 5-aminoimidazole-4-carboxamide-1-β-D-ribofuranoside, reference compound]
cell morphology / apoptotic cells ([6]; 48 hours, AICAR at 0.2 mM): no effect | effect on cell growth ([6]; TRX-E-002-1 25 ng/ml, mono therapies or combination): minimal effect
